Experimental findings from PubChem BioAssay (NCI) are described below.

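Growth conditions: 96-well plates. Treatment: test compound, 48 hours, 5 concentrations. Analysis: linear interpolation between bracketing concentrations; unreached endpoints set to highest concentration. Definition used: TGI = concentration required for complete inhibition of growth.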

Some test systems named below: OVCAR-4 ovarian; UACC-62 melanoma; ACHN renal; NCI-H23 lung; MCF7 breast; SF-268 CNS; OVCAR-3 ovarian; BT-549 breast; TK-10 renal; SR leukemia; HCT-116 colon; A498 renal; NCI-H522 lung; SK-MEL-2 melanoma; KM12 colon; NCI-H226 lung; MDA-N; HL-60(TB) leukemia; SF-539 CNS.
Common to all, as to assay: NCI anticancer screen, dose series, 48 h

As to `Cc1cc(C)n2nc3nc(N)c(C#N)c(-c4ccccc4)c3c2n1`, the TGI in the experiment with OVCAR-4 ovarian, in the experiment with UACC-62 melanoma, with ACHN renal, with NCI-H23 lung, with MCF7 breast and in the experiment on SF-268 CNS was more than 100 µM each time. Further, the TGI in the experiment on OVCAR-3 ovarian, in the experiment with BT-549 breast, in the experiment with TK-10 renal, in the experiment on SR leukemia, in the experiment with HCT-116 colon and in the experiment with A498 renal was more than 100 µM throughout. Moreover, the TGI with NCI-H522 lung, with SK-MEL-2 melanoma, in the experiment on KM12 colon, with NCI-H226 lung, in the experiment on MDA-N and with HL-60(TB) leukemia was more than 100 µM each time. Also, the TGI with SF-539 CNS is more than 100 µM.

`C[N+](CCCl)(CCCl)Cc1cccc2cccc([N+](=O)[O-])c12`: the TGI with OVCAR-4 ovarian, in the experiment with UACC-62 melanoma, in the experiment on ACHN renal, in the experiment on NCI-H23 lung, in the experiment on MCF7 breast and in the experiment with SF-268 CNS was more than 100 µM throughout. Moreover, the TGI in the experiment on OVCAR-3 ovarian, in the experiment with BT-549 breast, in the experiment on TK-10 renal, in the experiment with SR leukemia, in the experiment with HCT-116 colon and with A498 renal was more than 100 µM throughout. The TGI in the experiment with NCI-H522 lung, with SK-MEL-2 melanoma, in the experiment with KM12 colon, with NCI-H226 lung, in the experiment with MDA-N and in the experiment with HL-60(TB) leukemia was more than 100 µM each time. In the experiment on SF-539 CNS, the TGI was more than 100 µM.

For `C=C1C(=O)C[C@H]2C(=C)C(=O)O[C@@H]2C2C1CC[C@@]2(C)O` (some centres not stated), the TGI is 31.2 µM with UACC-62 melanoma; 25 µM in the experiment on ACHN renal; 59.4 µM with NCI-H23 lung; 36.1 µM in the experiment with MCF7 breast; more than 100 µM in the experiment with SF-268 CNS; 35.8 µM in the experiment with OVCAR-3 ovarian. Besides, the TGI in the experiment on BT-549 breast was 44 µM; with TK-10 renal, 41.4 µM; in the experiment on SR leukemia it was more than 100 µM; in the experiment with HCT-116 colon, more than 100 µM; in the experiment on A498 renal it was more than 100 µM; in the experiment with NCI-H522 lung, 41.4 µM. Further, the TGI in the experiment on SK-MEL-2 melanoma is 56.6 µM; with KM12 colon, more than 100 µM; in the experiment with NCI-H226 lung, 54.3 µM; with MDA-N, 77.8 µM; with HL-60(TB) leukemia, more than 100 µM; in the experiment with SF-539 CNS, more than 100 µM.

Take `Cc1c([N+](=O)[O-])ccc2c(NCCCN(C)C)ccnc12`: the TGI is 41 µM in the experiment on OVCAR-4 ovarian; 39.4 µM in the experiment on UACC-62 melanoma; more than 100 µM in the experiment on ACHN renal; 34.6 µM with NCI-H23 lung; 37.2 µM in the experiment on MCF7 breast; more than 100 µM with SF-268 CNS. Also, the TGI in the experiment on OVCAR-3 ovarian is 50.8 µM; in the experiment on BT-549 breast, 36.2 µM; with TK-10 renal it was 80.6 µM; in the experiment on SR leukemia it was more than 100 µM; in the experiment on HCT-116 colon, 35.3 µM; in the experiment with A498 renal, 82.7 µM. The TGI in the experiment on NCI-H522 lung is 31.9 µM; with SK-MEL-2 melanoma it was 31.8 µM; in the experiment with KM12 colon it was 32.1 µM; in the experiment with NCI-H226 lung, 72.5 µM; with MDA-N, 28.4 µM; in the experiment with HL-60(TB) leukemia, more than 100 µM. This molecule also returned a TGI in the experiment with SF-539 CNS of 31.2 µM.

Take `CCOC(=O)c1c(NC(=O)c2cccs2)sc2c1CCCC2`: the TGI in the experiment on OVCAR-4 ovarian was more than 100 µM; in the experiment with UACC-62 melanoma it was more than 100 µM; in the experiment with ACHN renal, more than 100 µM; in the experiment on NCI-H23 lung it was more than 100 µM; with MCF7 breast, more than 100 µM; in the experiment on SF-268 CNS it was 73.6 µM. Moreover, the TGI in the experiment with OVCAR-3 ovarian was more than 100 µM; in the experiment with BT-549 breast, more than 100 µM; in the experiment with TK-10 renal, more than 86.1 µM; in the experiment on SR leukemia, more than 100 µM; in the experiment with HCT-116 colon, more than 100 µM; with A498 renal it was more than 96.3 µM. In addition, the TGI in the experiment on NCI-H522 lung, in the experiment on SK-MEL-2 melanoma, in the experiment with KM12 colon, in the experiment on NCI-H226 lung, in the experiment on MDA-N and with HL-60(TB) leukemia was more than 100 µM each time. The molecule also displayed a TGI with SF-539 CNS of 57.4 µM.

Take `COC(=O)C1=C(C)NC2=C(C(=O)c3ccccc32)C1c1cn(-c2ccccc2)nc1-c1ccccc1` (configuration not stated): the TGI in the experiment on OVCAR-4 ovarian, in the experiment with UACC-62 melanoma, in the experiment on ACHN renal, in the experiment with NCI-H23 lung, in the experiment on MCF7 breast and in the experiment with SF-268 CNS was more than 100 µM in each case. Also, the TGI in the experiment with OVCAR-3 ovarian is more than 100 µM; in the experiment with BT-549 breast, more than 100 µM; in the experiment on TK-10 renal it was more than 100 µM; with SR leukemia, more than 21.6 µM; in the experiment with HCT-116 colon, more than 100 µM; with A498 renal, more than 100 µM. The TGI in the experiment with NCI-H522 lung, in the experiment with SK-MEL-2 melanoma, in the experiment on KM12 colon, in the experiment on NCI-H226 lung, in the experiment with MDA-N and with HL-60(TB) leukemia was more than 100 µM throughout. In the experiment on SF-539 CNS, this molecule registered a TGI of more than 100 µM.

In the case of `Nc1c2c(nc3cc(F)c(F)cc13)CCC2`, the TGI in the experiment with OVCAR-4 ovarian, in the experiment with UACC-62 melanoma, in the experiment with ACHN renal, in the experiment with NCI-H23 lung, with MCF7 breast and with SF-268 CNS was more than 100 µM each time. For the same molecule, the TGI in the experiment with OVCAR-3 ovarian is more than 100 µM; in the experiment with BT-549 breast, more than 100 µM; in the experiment on TK-10 renal, 77.7 µM; with SR leukemia, more than 100 µM; with HCT-116 colon, more than 100 µM; in the experiment on A498 renal, 61.2 µM. For the same molecule, the TGI in the experiment with NCI-H522 lung is more than 100 µM; with SK-MEL-2 melanoma, more than 100 µM; with KM12 colon it was more than 100 µM; in the experiment with NCI-H226 lung, more than 100 µM; with MDA-N it was more than 100 µM; in the experiment on HL-60(TB) leukemia, 10.1 µM. Moreover, in the experiment on SF-539 CNS, the TGI is more than 100 µM.

Turning to `CCCn1c2ccccc2c2ccc3c(c21)C(=O)C=CC3=O`, the TGI was 4.07 µM in the experiment on OVCAR-4 ovarian; more than 10 µM with UACC-62 melanoma; 3.59 µM with ACHN renal; 5.99 µM with NCI-H23 lung; 4.59 µM in the experiment on MCF7 breast; more than 10 µM in the experiment with SF-268 CNS. Further, the TGI was 4.88 µM with OVCAR-3 ovarian; 4.9 µM in the experiment with BT-549 breast; 3.76 µM in the experiment with TK-10 renal; 0.883 µM in the experiment on SR leukemia; 3.13 µM with HCT-116 colon; more than 10 µM with A498 renal. The TGI in the experiment with NCI-H522 lung is 3.54 µM; in the experiment on SK-MEL-2 melanoma it was more than 10 µM; in the experiment with KM12 colon, more than 10 µM; in the experiment on NCI-H226 lung, more than 10 µM; with MDA-N it was 6.43 µM; in the experiment on HL-60(TB) leukemia it was more than 2.27 µM. Moreover, the TGI with SF-539 CNS was more than 6.41 µM.

For the molecule `CN(Cc1cnc2nc(N)nc(N)c2n1)c1ccc(C(=O)NC(CCC(=O)NCCC(P(=O)(O)O)P(=O)(O)O)C(=O)O)cc1` (configuration not stated), the TGI in the experiment on OVCAR-4 ovarian, in the experiment with UACC-62 melanoma, in the experiment on ACHN renal, in the experiment on NCI-H23 lung, in the experiment on MCF7 breast and in the experiment on SF-268 CNS was more than 100 µM throughout. For the same molecule, the TGI in the experiment on OVCAR-3 ovarian, in the experiment with BT-549 breast, in the experiment with TK-10 renal, in the experiment on SR leukemia, in the experiment on HCT-116 colon and with A498 renal was more than 100 µM throughout. The TGI in the experiment on NCI-H522 lung, in the experiment with SK-MEL-2 melanoma, with KM12 colon, with NCI-H226 lung, in the experiment with MDA-N and with HL-60(TB) leukemia was more than 100 µM throughout. This molecule also registered a TGI in the experiment on SF-539 CNS of more than 100 µM.

Regarding `O=C1NC(NNc2ccccc2)=N/C1=C\c1ccccc1O`, the TGI in the experiment on OVCAR-4 ovarian, with UACC-62 melanoma, with ACHN renal, in the experiment with NCI-H23 lung, in the experiment with MCF7 breast and with SF-268 CNS was more than 100 µM throughout. For the same molecule, the TGI in the experiment with OVCAR-3 ovarian, in the experiment on BT-549 breast, with TK-10 renal, with SR leukemia, with HCT-116 colon and in the experiment with A498 renal was more than 100 µM in each case. The TGI in the experiment with NCI-H522 lung, in the experiment with SK-MEL-2 melanoma, in the experiment with KM12 colon, with NCI-H226 lung, in the experiment on MDA-N and in the experiment on HL-60(TB) leukemia was more than 100 µM throughout. In the experiment on SF-539 CNS, this molecule displayed a TGI of more than 100 µM.

For the molecule `COc1cc(C2SCC(=O)N2c2ccccn2)cc(OC)c1OC` (configuration not stated), the TGI in the experiment with OVCAR-4 ovarian, in the experiment with UACC-62 melanoma, in the experiment with ACHN renal, with NCI-H23 lung, with MCF7 breast and in the experiment with SF-268 CNS was more than 100 µM throughout. Also, the TGI in the experiment on OVCAR-3 ovarian, in the experiment on BT-549 breast, in the experiment with TK-10 renal, in the experiment on SR leukemia, in the experiment with HCT-116 colon and in the experiment with A498 renal was more than 100 µM each time. Further, the TGI with NCI-H522 lung is more than 100 µM; in the experiment with SK-MEL-2 melanoma, more than 100 µM; with KM12 colon, more than 100 µM; with NCI-H226 lung, more than 100 µM; in the experiment on MDA-N, 41.6 µM; in the experiment on HL-60(TB) leukemia it was more than 100 µM. Also, the TGI in the experiment with SF-539 CNS was more than 100 µM.

On to `CCCCc1c(N(C)C)c(OC(C)=O)c(-c2cn(C)c3ccccc23)oc1=O`, for which the TGI in the experiment on OVCAR-4 ovarian is more than 100 µM; in the experiment on UACC-62 melanoma, 40.7 µM; in the experiment with ACHN renal it was more than 100 µM; in the experiment on NCI-H23 lung, 56.7 µM; in the experiment on MCF7 breast, 39.6 µM; in the experiment on SF-268 CNS it was 88.9 µM. The TGI was 67.9 µM with OVCAR-3 ovarian; 72.2 µM in the experiment on BT-549 breast; more than 100 µM with TK-10 renal; more than 100 µM in the experiment on SR leukemia; 40.9 µM in the experiment on HCT-116 colon; 81.4 µM in the experiment on A498 renal. Further, the TGI was 49.5 µM in the experiment with NCI-H522 lung; 40.7 µM in the experiment with SK-MEL-2 melanoma; 37.5 µM in the experiment on KM12 colon; 36.8 µM with NCI-H226 lung; 44.8 µM in the experiment on MDA-N; 51.1 µM in the experiment with HL-60(TB) leukemia. This molecule gave a TGI with SF-539 CNS of 47.5 µM.
